Series [1] is described as follows: Prodrug activation assessed as carboxypeptidase Y (unknown origin) mediated signal shift at 13.5 ppm by P-NMR spectroscopy. The settings on record: human.
For the next series, the system named is Dengue virus. Description: Antiviral activity against Dengue virus. The series is classed as functional, organism-based.
Series [2] in a line: Prodrug activation assessed as carboxypeptidase Y (unknown origin) mediated signal shift at 13.2 ppm by P-NMR spectroscopy. The settings on record: human.
Series [3] can be described thus: Prodrug activation assessed as carboxypeptidase Y (unknown origin) mediated formation of metabolite from (2S)-2-((((2R,3R,4R,5R)-5-(6-amino-9H-purin-9-yl)-3,4-dihydroxy-4-methyltetrahydrofuran-2-yl)methylamino)(phenoxy)phosphorylamino)propanoic acid intermediate at 3.3 ppm by P-NMR spectroscopy. The series is classed as ADME. The settings on record: human.
Series [4] in a line: Prodrug activation in human HepG2 cell extract assessed as metabolite formation at 100 uM measured after 4 hrs by HPLC analysis. The series is classed as ADME, cell-based. The settings on record: hepg2, 4 h.
The nature of series [5]: Prodrug activation assessed as carboxypeptidase Y (unknown origin) mediated cleavage of diastereoisomer measured after 5 mins by P-NMR spectroscopy. The settings on record: human.
The subject of a further series is Coxsackievirus. Description: Antiviral activity against CVB3. The series is classed as functional, organism-based. The settings on record: B3.
Series [6] concerns Tick-borne encephalitis virus. Description: Antiviral activity against TBEV. The series is classed as functional, organism-based.
A further series deals with Zika virus. Description: Antiviral activity against Zika virus. It is filed as functional, organism-based.
Series [7] can be described thus: Prodrug activation assessed as carboxypeptidase Y (unknown origin) mediated metabolite formation at 3.3 ppm by P-NMR spectroscopy. It is filed as ADME. The settings on record: human.
The nature of series [8]: Prodrug activation assessed as carboxypeptidase Y (unknown origin) mediated cleavage of diastereoisomer measured after 120 mins by P-NMR spectroscopy. The settings on record: human, 2 h.
A further series concerns West Nile virus. As to the kind of experiment: Antiviral activity against West Nile virus. It is filed as functional, organism-based.
Series [9] in a line: Prodrug activation assessed as carboxypeptidase Y (unknown origin) mediated (2S)-2-((((2R,3R,4R,5R)-5-(6-amino-9H-purin-9-yl)-3,4-dihydroxy-4-methyltetrahydrofuran-2-yl)methylamino)(phenoxy)phosphorylamino)propanoic acid intermediate formation measured after 5 mins by P-NMR spectroscopy. The settings on record: human.
Series [10] deals with Human immunodeficiency virus. As to the kind of experiment: Antiviral activity against HIV. It is filed as functional, organism-based.
Series [11] is described as follows: Prodrug activation assessed as carboxypeptidase Y (unknown origin) mediated metabolite formation at 3.1 ppm measured after 5 mins by P-NMR spectroscopy. It is filed as ADME. The settings on record: human.
Series [12] is described as follows: Prodrug activation assessed as carboxypeptidase Y (unknown origin) mediated intermediate metabolite formation by P-NMR spectroscopy. The series is classed as ADME. The settings on record: human.
Series [13] can be described thus: Prodrug activation assessed as carboxypeptidase Y (unknown origin) mediated cleavage at ribose sugar region resulting in formation of 2R,3R,4R,5S)-2-(6-aminopurin-9-yl)-3-methyl-5-(sulfanylmethyl)tetrahydrofuran-3,4-diol measured after 120 mins by 13C-APT spectra analysis. The settings on record: human, 2 h.
Series [14] in a line: Prodrug activation assessed as carboxypeptidase Y (unknown origin) mediated cleavage at phenyl region resulting in formation of (2S)-2-[[hydroxy(phenoxy)phosphoryl]amino]propanoic acid measured after 120 mins by 13C-APT spectra analysis. The settings on record: human, 2 h.

Calls of active or inactive are those of the source. The rule behind the calls is not given here.

For the compound `COC(=O)[C@H](C)NP(=O)(NC[C@H]1O[C@@H](n2cnc3c(N)ncnc32)[C@](C)(O)[C@@H]1O)Oc1ccccc1` (some centres not stated), the Activity result in series [1] was “Active”; in series [2], “Active”; in series [5], “Not Active”; in series [8], “Not Active”. The result (in the series on Dengue virus; with Coxsackievirus; in series [6]; with Zika virus; with West Nile virus; in [10]) was inactive. Moreover, the Drug metabolism result in series [3], in [4], in series [7] and in series [9] was “Metabolite_Detected” each time.
In the case of `COC(=O)[C@H](C)NP(=O)(Oc1ccccc1)SC[C@H]1O[C@@H](n2cnc3c(N)ncnc32)[C@](C)(O)[C@@H]1O` (some centres not stated), the Drug metabolism result in series [11] is given as “Metabolite_Detected”; in series [4] it was “Metabolite_Detected”; in series [12], “Metabolite_Notdetected”; in [13], “Metabolite_Detected”; in [14], “Metabolite_Detected”. Moreover, the result (with Dengue virus; in the series with Coxsackievirus; in series [6]; with Zika virus; in the series on West Nile virus; in series [10]) was inactive. Moreover, the Activity entry is reported as “Active” in series [5] and “Not Active” in [8].

These data come from ChEMBL document CHEMBL4616597, “Could 5'-N and S ProTide analogues work as prodrugs of antiviral agents?” (Bioorg Med Chem Lett, 2020).
